Data from US4011328A, “Derivatives of pyridine-3-acetic acid, process for their preparation and applications thereof” (SERDEX - Societe d'Etudes, de Recherches, de Diffusion et …, priority 1973, dated 1977).

How the values were obtained:
Format in all cases: in vivo
[1] = test system: Turfyl nicotinate (Trafuril)-induced erythema; assay: Erythema with Turfyl nicotinate (Trafuril), anti-inflammatory power; details: Cavia porcellus, po; male albino guinea-pigs; buccally 1 hour before test; result at the end of 5 minutes
Description: (§1) b. Anti-inflammatory power.
2. Erythema with Turfyl nicotinate(Trafuril).
The NAINING method is used (Br.jl.Pharmacol. 1963-21-104-12), slightly modified:
The test is carried out on homogeneous groups of six to 12 male albino guinea-pigs weighing 300-400 g, the skin of the back having been carefully plucked the day before.
On the day of the test an antibiogramme disc saturated with an alcoholic solution at 5% of Turfyl nicotinate is applied to the lumbar region for 1 minute.
The result is observed at the end of 5 minutes.
The results are recorded on an "all or nothing" basis, according to which an erythema appears at the place in which the disc was applied.
The treatment is administered buccally 1 hour before the test, with a uniform volume of 1 ml per kg of body weight; the products are placed in homogeneous suspension by the aid of 3% of gum arabic.
The pilot animals are given an equal volume of vehicle.
The percentage of erythema produced in the treated animals is compared with that of the pilot group observed at the same time.

[2] = test system: carragheen-induced localized oedema; assay: Acute oedema with carragheen, anti-inflammatory power; details: Rattus norvegicus, po; male rats; buccally 1 hour before carragheen; oedema 3 hours after carragheen
Description: as §1
1. Acute oedema with carragheen.
(Winster C. A., Risley R. A., Nuss G. W. -- Proc.Soc.Biol. Med.1962,3,544-7).
The injection, under the arch of the rat's foot, of 0.05 ml of an aqueous gel with 1% carragheen produces a localized oedema which can be measured with an electric plethysmometer of the mercury type.
The percentage of inflammation can be calculated by measuring the volume of the […] foot before and 3 hours after the carragheen injection.
The treatment is given buccally, 1 hour before the carragheen.
The test is carried out on homogeneous groups of ten male rats of 180 ± 10 g.
For each animal the oedema is measured as follows: [formula]
When the percentage of oedema is known for the pilot group, the protection observed under the effect of the substance tested is deducted therefrom for the treated groups.

[3] = test system: 2-phenyl-1,4-benzoquinone-induced stretching of the rear feet and torsion of the trunk; assay: Siegmund test, analgesic power: phenylbenzoquinone-induced stretchings/torsions; details: Mus musculus, ip; mice; substance given 1 hour before intraperitoneal phenylbenzoquinone; observed 5th-10th minute
Description: The intraperitoneal injection of 0.25 ml of a hydroalcoholic solution of 2-phenyl-1,4-benzoquinone at a concentration of 0.02% produces in mice a particular syndrom characterized by the stretching of the rear feet and the torsion of the trunk.
The test is carried out on homogeneous groups of 20 to 30 mice with an average weight of 20 g.
The substance to be studied is administered to them at the time "0." One hour later the phenylbenzoquinone is administered intraperitoneally. The animals are observed individually for 5 minutes, between the 5th and 10th minute following the injection of the phenyl benzoquinone. The number of stretchings performed by each animal during the observation period is noted.
The percentage of activity of the substance is calculated by comparing the number of torsions performed by the animals and those performed by pilot animals.

Which ED50 [1] does the source give for `COc1ccc(-c2nc(C)c(CC(=O)O)cc2-c2ccc(Cl)cc2)cc1` [Example 3] here?
Its ED50 is 5.2 mg/kg.

What about the ED50 [2] of the same compound?
Its ED50 is 28 mg/kg.

And the ED50 [3]?
The ED50 was 0.9 mg/kg.

Which ED50 [1] does the source give for `Cc1ccc2c(c1)-c1nc(C)c(CC(=O)O)cc1CO2` [Example 1] here?
The ED50 was 78 mg/kg.

What about the ED50 [2] of the same compound?
The ED50 was 16 mg/kg.

What about the ED50 [3] of the same compound?
Its ED50 is 150 mg/kg.
